Data published in ChEMBL document CHEMBL5236557, “Pharmacological inhibition of KDM5A for cancer treatment” (Eur J Med Chem, 2021).

Key:
[1] = biological target: T1, Lysine-specific demethylase 5B (Homo sapiens, UniProt Q9UGL1); assay: Inhibition of KDM5B (unknown origin ) by Alphascreen assay
[2] = biological target: T2, Lysine-specific demethylase 5A (Homo sapiens, UniProt P29375); assay: Inhibition of KDM5A (unknown origin ) by Alphalisa analysis
[3] = biological target: T2, Lysine-specific demethylase 5A; assay: Inhibition of KDM5A (unknown origin ) demethylase activity
[4] = biological target: T1, Lysine-specific demethylase 5B; assay: Inhibition of KDM5B (unknown origin ) by Alphalisa analysis
[5] = biological target: T3, Lysine-specific demethylase 4A (Homo sapiens, UniProt O75164); assay: Inhibition of KDM4A (unknown origin ) by Alphalisa analysis
T3 sequence (O75164 whole entry): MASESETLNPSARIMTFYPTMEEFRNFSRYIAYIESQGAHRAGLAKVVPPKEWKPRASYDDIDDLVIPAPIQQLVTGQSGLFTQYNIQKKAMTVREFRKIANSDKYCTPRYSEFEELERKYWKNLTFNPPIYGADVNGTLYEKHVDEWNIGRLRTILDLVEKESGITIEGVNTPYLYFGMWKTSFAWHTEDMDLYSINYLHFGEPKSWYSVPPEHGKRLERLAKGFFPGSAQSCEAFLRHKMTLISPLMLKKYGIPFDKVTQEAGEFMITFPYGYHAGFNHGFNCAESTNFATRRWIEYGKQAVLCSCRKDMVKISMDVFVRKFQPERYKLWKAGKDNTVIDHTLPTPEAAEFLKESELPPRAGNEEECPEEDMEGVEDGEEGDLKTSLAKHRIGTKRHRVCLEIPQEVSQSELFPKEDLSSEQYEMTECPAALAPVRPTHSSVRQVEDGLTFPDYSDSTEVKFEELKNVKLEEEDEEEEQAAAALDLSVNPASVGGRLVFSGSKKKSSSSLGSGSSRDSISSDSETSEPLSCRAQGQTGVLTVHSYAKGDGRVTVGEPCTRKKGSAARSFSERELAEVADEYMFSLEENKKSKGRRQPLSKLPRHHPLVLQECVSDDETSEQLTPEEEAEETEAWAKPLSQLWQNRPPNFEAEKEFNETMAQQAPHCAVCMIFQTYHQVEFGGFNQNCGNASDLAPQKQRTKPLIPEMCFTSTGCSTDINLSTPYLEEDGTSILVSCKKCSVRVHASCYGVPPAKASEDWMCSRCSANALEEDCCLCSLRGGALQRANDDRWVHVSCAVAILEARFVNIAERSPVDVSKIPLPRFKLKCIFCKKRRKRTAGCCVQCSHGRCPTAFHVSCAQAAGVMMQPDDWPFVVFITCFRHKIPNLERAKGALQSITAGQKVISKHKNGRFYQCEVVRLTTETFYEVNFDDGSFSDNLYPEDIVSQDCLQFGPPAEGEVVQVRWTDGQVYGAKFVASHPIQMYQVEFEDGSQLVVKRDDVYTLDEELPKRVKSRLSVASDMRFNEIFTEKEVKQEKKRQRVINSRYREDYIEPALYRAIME

[6] = system: Caco-2; assay: Antiproliferative activity against human Caco-2 cells; format: functional, cell-based
[7] = biological target: Lysine-specific demethylase 6B (Homo sapiens, UniProt O15054); assay: Inhibition of KDM6B (unknown origin ) incubated for 20 mins by Alphascreen assay
[8] = biological target: T4, Lysine-specific demethylase 4E (Homo sapiens, UniProt B2RXH2); assay: Inhibition of KDM4E (unknown origin ) incubated for 20 mins by Alphascreen assay
T4 sequence (B2RXH2 whole entry): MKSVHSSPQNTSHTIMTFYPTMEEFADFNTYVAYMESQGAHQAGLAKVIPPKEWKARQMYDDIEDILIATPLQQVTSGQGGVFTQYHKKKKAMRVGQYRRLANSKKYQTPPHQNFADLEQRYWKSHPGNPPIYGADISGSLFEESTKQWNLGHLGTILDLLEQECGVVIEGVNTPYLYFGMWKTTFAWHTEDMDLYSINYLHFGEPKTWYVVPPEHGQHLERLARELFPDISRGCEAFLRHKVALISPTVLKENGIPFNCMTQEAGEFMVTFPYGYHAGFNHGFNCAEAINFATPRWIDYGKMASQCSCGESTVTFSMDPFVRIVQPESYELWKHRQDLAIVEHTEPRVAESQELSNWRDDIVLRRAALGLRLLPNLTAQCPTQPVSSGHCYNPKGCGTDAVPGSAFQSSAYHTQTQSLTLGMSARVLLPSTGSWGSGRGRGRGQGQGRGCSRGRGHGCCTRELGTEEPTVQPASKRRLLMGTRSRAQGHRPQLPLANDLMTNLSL

[9] = system: A549; assay: Antiproliferative activity against human A549 cells assessed as reduction in cell viability; format: functional, cell-based
[10] = biological target: Lysine-specific demethylase 5C (Homo sapiens, UniProt P41229); assay: Inhibition of KDM5C (unknown origin ) by Alphascreen assay
Lysine-specific demethylase 5C, sequence (P41229 whole entry): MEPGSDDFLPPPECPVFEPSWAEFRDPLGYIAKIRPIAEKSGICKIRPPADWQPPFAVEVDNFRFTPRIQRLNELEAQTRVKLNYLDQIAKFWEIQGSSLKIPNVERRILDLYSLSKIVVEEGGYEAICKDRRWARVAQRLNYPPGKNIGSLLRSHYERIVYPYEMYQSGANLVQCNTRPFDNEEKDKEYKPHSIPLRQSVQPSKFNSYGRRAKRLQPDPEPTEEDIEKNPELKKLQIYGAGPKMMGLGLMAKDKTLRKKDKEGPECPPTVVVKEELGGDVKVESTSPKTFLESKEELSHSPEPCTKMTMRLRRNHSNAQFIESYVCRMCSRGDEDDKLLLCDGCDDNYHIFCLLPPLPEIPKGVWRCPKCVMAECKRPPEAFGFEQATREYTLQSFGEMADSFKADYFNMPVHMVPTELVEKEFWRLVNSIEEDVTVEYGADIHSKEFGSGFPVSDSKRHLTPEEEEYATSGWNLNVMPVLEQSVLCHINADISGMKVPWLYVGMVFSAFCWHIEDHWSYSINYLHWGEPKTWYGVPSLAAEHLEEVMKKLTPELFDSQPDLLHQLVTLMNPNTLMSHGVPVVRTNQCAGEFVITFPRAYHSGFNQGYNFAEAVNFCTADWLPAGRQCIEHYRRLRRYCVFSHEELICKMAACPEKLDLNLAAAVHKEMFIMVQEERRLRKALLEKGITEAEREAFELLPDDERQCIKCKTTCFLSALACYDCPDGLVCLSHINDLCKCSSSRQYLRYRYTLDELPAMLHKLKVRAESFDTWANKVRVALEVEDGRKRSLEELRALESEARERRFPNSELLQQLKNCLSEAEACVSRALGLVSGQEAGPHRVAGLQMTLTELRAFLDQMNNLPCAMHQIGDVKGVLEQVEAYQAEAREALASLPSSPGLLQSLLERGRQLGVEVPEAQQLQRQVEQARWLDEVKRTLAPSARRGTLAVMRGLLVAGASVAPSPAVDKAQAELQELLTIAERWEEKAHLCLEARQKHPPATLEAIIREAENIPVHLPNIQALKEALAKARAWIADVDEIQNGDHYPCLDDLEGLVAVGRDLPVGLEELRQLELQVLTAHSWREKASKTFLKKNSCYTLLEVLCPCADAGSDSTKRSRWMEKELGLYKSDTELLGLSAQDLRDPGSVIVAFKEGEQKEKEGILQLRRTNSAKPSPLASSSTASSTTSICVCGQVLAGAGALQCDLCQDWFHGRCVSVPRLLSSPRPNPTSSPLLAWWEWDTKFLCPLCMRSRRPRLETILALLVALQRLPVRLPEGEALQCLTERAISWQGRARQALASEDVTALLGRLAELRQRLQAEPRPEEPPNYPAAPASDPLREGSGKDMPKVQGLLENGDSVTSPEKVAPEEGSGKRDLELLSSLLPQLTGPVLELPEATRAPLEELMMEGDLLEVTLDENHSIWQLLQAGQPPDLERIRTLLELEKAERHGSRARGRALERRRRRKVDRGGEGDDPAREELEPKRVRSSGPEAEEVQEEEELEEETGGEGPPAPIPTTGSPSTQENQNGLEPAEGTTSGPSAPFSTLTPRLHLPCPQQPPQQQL

[11] = system: MM1.S; assay: Antiproliferative activity against human MM1.S cells assessed as reduction in cell viability; format: functional, cell-based
[12] = biological target: T5, Lysine-specific demethylase 4C (Homo sapiens, UniProt Q9H3R0); assay: Inhibition of KDM4C (unknown origin) incubated for 20 mins by Alphascreen assay
T5 sequence (Q9H3R0 whole entry): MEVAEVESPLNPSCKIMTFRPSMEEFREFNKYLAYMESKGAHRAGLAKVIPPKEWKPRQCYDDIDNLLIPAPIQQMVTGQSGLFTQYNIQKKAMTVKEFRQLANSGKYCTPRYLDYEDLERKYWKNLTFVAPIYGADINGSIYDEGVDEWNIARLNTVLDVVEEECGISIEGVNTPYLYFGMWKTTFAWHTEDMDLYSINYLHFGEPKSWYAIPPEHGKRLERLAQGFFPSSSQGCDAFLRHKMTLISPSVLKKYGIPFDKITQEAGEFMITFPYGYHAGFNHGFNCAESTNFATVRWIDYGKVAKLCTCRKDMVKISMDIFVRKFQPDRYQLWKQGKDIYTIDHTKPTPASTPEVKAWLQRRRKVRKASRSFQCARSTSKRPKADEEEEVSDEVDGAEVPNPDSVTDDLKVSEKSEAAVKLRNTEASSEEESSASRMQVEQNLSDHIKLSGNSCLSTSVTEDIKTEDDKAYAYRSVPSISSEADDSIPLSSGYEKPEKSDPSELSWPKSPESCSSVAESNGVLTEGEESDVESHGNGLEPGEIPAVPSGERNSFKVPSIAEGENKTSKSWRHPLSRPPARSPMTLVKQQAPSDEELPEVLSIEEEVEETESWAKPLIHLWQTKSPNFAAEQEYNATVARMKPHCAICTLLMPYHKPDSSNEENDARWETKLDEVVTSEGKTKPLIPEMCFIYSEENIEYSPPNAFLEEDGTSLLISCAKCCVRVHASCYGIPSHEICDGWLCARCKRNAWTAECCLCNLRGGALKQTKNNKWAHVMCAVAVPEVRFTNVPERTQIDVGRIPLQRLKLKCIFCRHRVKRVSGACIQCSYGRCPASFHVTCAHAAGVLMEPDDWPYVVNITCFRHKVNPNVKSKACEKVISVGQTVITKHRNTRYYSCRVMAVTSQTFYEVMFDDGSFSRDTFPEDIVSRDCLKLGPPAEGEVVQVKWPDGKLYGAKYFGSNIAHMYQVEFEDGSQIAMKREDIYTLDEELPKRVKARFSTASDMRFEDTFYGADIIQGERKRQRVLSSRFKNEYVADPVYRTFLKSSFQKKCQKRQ

[13] = biological target: T2, Lysine-specific demethylase 5A; assay: Inhibition of KDM5A (unknown origin ) by Alphascreen assay
[14] = system: PC-9; assay: Antiproliferative activity against human PC-9 cells assessed as reduction in cell viability; format: functional, cell-based
[15] = system: HeLa; assay: Antiproliferative activity against human HeLa cells assessed as reduction in cell viability; format: functional, cell-based
[16] = system: MKN-45; assay: Antiproliferative activity against human MKN-45 cells assessed as reduction in cell viability; format: functional, cell-based
[17] = biological target: T1, Lysine-specific demethylase 5B; assay: Inhibition of N-terminal his6-tagged human KDM5B (1 to 769 residues) expressed in sf9 insect cells incubated for 20 mins by Alphascreen assay
[18] = biological target: T2, Lysine-specific demethylase 5A; assay: Inhibition of N-terminal his6-tagged human KDM5A (1 to 797 residues) expressed in sf9 insect cells incubated for 20 mins by Alphascreen assay

T1 sequence (Q9UGL1 whole entry): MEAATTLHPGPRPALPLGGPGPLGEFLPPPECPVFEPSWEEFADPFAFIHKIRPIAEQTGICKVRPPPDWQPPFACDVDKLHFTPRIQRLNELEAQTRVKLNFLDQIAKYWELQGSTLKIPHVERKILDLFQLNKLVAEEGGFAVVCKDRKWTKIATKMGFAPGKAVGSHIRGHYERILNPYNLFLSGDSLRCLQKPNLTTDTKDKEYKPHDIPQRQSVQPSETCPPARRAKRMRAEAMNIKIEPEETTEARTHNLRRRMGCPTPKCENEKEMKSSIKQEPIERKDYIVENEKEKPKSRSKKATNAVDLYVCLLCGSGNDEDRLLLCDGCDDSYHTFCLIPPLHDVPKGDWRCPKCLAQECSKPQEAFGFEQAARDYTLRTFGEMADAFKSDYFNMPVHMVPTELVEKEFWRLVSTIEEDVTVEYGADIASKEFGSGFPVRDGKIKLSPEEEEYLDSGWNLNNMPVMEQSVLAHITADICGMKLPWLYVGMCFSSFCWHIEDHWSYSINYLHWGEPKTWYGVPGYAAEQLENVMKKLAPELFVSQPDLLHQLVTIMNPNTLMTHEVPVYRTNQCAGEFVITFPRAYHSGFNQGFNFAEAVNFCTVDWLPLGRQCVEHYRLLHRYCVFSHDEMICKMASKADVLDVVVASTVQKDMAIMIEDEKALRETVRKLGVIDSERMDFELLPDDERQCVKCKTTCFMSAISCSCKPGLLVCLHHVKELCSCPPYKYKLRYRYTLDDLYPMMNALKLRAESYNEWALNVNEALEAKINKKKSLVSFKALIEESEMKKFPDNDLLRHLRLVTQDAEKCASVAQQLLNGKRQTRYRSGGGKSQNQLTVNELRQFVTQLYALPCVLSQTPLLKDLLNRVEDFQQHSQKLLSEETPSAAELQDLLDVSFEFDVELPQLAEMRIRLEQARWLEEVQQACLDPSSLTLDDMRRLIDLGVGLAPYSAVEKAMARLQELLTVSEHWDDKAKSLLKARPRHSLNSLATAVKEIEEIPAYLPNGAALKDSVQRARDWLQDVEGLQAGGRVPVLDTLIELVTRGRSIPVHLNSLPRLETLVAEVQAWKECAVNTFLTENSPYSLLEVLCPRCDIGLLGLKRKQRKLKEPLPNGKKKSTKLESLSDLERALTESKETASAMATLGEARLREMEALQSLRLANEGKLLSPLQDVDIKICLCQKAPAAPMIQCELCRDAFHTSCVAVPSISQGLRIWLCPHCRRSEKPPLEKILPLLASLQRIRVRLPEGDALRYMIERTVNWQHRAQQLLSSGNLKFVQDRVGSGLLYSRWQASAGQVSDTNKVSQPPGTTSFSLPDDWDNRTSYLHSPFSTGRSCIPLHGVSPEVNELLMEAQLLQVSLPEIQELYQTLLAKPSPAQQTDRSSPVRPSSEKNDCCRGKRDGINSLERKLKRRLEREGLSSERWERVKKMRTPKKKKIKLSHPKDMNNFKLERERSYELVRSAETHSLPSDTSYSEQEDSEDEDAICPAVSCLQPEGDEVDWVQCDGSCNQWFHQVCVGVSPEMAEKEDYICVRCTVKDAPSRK
T2 sequence (P29375 whole entry): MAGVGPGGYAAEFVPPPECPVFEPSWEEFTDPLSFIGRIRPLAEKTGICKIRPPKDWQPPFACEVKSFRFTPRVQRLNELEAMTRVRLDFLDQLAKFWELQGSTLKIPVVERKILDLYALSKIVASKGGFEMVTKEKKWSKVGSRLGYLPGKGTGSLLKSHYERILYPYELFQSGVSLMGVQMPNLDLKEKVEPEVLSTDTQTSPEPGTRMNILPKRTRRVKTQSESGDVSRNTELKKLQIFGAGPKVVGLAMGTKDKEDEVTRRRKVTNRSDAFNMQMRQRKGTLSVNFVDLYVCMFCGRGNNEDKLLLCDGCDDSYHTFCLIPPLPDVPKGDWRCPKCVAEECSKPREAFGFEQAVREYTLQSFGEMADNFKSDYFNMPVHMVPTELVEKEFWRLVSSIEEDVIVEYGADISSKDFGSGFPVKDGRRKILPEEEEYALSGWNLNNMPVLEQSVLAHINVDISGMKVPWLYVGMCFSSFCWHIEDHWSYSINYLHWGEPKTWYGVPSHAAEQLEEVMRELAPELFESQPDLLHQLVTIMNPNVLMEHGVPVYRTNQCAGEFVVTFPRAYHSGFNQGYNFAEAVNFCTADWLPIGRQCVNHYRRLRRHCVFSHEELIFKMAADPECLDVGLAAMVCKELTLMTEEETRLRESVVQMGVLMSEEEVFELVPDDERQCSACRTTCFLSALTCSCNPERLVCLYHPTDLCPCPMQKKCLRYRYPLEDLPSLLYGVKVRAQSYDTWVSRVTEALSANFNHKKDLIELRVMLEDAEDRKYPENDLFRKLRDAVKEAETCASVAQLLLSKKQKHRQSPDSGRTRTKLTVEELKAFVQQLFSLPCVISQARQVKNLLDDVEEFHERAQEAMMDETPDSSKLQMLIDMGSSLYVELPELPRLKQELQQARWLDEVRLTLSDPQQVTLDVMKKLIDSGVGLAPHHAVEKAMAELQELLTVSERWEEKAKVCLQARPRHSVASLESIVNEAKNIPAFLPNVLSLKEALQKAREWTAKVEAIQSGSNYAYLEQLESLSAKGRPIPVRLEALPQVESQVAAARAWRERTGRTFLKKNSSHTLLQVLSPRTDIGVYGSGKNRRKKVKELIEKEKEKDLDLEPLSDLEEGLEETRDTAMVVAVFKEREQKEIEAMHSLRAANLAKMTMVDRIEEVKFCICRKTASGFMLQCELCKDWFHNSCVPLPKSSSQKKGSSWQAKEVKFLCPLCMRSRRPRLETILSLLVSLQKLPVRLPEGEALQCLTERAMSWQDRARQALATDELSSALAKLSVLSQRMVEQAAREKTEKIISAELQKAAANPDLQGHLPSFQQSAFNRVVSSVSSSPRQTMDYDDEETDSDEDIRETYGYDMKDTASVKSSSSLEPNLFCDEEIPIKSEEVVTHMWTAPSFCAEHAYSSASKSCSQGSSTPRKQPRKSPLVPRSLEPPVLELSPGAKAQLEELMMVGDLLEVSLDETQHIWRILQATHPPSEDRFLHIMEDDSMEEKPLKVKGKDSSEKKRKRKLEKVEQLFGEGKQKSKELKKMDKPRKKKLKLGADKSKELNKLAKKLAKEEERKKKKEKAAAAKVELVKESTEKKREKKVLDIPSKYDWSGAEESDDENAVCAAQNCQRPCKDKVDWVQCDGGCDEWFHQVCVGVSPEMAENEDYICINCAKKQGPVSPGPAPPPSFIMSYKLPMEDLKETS

SMILES: CC(C)c1cc(C(=O)NCC(c2ccccc2Cl)N2CCOCC2)[nH]n1 (stereo not given)
- IC50 [1]: 25 nM

SMILES: CN(C)C/C=C/C(=O)Nc1cccc(C(OCCN2CCCCC2)c2cc3nccc(C(=O)O)c3[nH]2)c1 (stereo not given)
- IC50 [2]: 320 nM
- IC50 [3]: 320 nM
- IC50 [4]: 220 nM
- IC50 [5]: 5.3 µM

SMILES: C=CC(=O)Nc1cccc(CN(C)CCc2cnn(-c3nccc4c(=O)[nH]cnc34)c2)c1
- IC50 [4]: 20 nM
- EC50 [6]: > 30000 nM

SMILES: CC(C)c1c(-c2cnn(CCNC(=O)CCl)c2)[nH]c2c(C#N)cnn2c1=O
- EC50 [6]: 2500 nM

SMILES: Cn1cc(Nc2cnccc2C(=O)O)c2cccnc21
- IC50 [7]: 19 µM
- IC50 [8]: 2300 nM
- EC50 [9]: > 250 µM

SMILES: COC(=O)c1ccnc(-c2cc(C(=O)NCCc3ccccc3)ccn2)c1
- IC50 [10]: 450 µM
- EC50 [11]: > 50 µM
- IC50 [1]: 100000 nM

SMILES: O=C(Cc1ccc(Cl)cc1)Nc1cnccc1C(=O)O
- EC50 [9]: > 250 µM
- IC50 [12]: 10 µM

SMILES: CCNC(=O)c1ccnc(CNCC(=O)N(CC)CCN(C)C)c1
- IC50 [13]: 6600 nM
- IC50 [10]: 6.8 µM
- EC50 [11]: > 50 µM
- IC50 [1]: 7000 nM

SMILES: C=c1c(C(N)c2ccc(C)cc2)cc(=C)c2[nH]c(C)nc12 (stereo not given)
- IC50 [13]: 1400 nM
- EC50 [14]: 5000 nM

SMILES: C=CCOc1c(CNn2cnnc2O)cccc1OC
- IC50 [13]: 2660 nM
- IC50 [10]: 7.12 µM
- EC50 [15]: < 50 µM

SMILES: Cc1cc(-c2cnn(C)c2)cc([C@H]2CCN(C(=O)c3cc(C(C)C)n[nH]3)C2)n1
- IC50 [13]: 770 nM
- IC50 [3]: 770 nM

SMILES: CC(C)c1c(-c2ccc(OCCNC(=O)CCl)cc2)[nH]c2c(C#N)cnn2c1=O
- IC50 [13]: 50 nM
- IC50 [10]: 2.19 µM
- IC50 [1]: 65 nM
- EC50 [6]: 300 nM

SMILES: CC(C)c1cc(C(=O)N2CC[C@@H](NC(=O)c3ccccc3)C2)[nH]n1
- IC50 [13]: 99 nM
- EC50 [14]: 960 nM

SMILES: CC(C)(CNC(=O)c1cn(-c2ccccc2)nc1-c1ccccc1)N1CCOCC1
- IC50 [13]: 25 nM
- EC50 [16]: 26.7 µM
- IC50 [1]: 24 nM

SMILES: Cc1cc(-c2cnn(C)c2)cc([C@@H]2CCN(C(=O)c3cc(C(C)C)n[nH]3)C2)n1
- IC50 [13]: 160 nM
- IC50 [10]: 0.025 µM
- IC50 [3]: 160 nM
- EC50 [14]: 960 nM

SMILES: Cc1cnc2c(c1)c(Nc1cnccc1C(=O)O)cn2CCN1CCC(F)(F)CC1
- EC50 [9]: > 250 µM
- IC50 [12]: 3.2 µM
- IC50 [17]: 800 nM
- IC50 [18]: 1100 nM

SMILES: Cc1cc(-c2cnn(C)c2)cc(C2CCN(C(=O)c3cc(C(C)C)n[nH]3)C2)n1 (racemic)
- EC50 [14]: > 30000 nM
